# Key:
# [1] = system: advanced glycation end product (AGE), retinal carboxymethyl-lysine; assay: Retinal carboxymethyl-lysine measurement (AGE-product quantification), ELISA; format: in vivo, rat; conditions: STZ-induced diabetic Sprague-Dawley rats, after 90 days of treatment, n=20/group, mean +/- SEM
# Experimental: (§1) Sprague-Dawley rats (Harlan), weighing 75-100 g, were assigned to one of eight subgroups, based on non-diabetic, untreated diabetic and treated diabetic groups as indicated here-under. Sprague-Dawley rats were housed in a constant environment (room temperature (22.0±1.5)° C., room humidity (55±5) %) with a normal light-dark cycle (12-hour light, 12-hour dark). Diabetes was induced by intraperitoneal streptozotocin injection (75 mg/kg STZ, 10 mM citrate buffer, pH 4.5). Non-diabetic control animals received an equivalent dose of vehicle (citrate buffer at pH 4.6).
# Retinal samples were exposed to ultrasonic disruption in RIPA buffer. After tissue debris suppression by centrifugation, protein level of samples was measured using bicinchoninic acid (BCA) protein assay kit (Pierce). Sample (concentration: 50 μg/mL) or advanced glycation end product (AGE)-BSA standard (0 to 200 μM) diluted in 0.05% Tween 20 and 0.2% BSA in 75 mM PBS were placed in duplicate into 96-wells plate (Nunc C96 Maxisorp; eBioscience) coated with solid-phase antigen (1 μg/mL AGE-BSA). Anti-CML rabbit polyclonal antibody was added for 2 hours at room temperature and then washed in 0.2 mM KH2PO4, 1.4 mM K2HPO4, 3 mM NaCl, 0.45 μM sorbic acid potassium, and 0.01% Tween-20 buffer. […] Absorbance was measured at 450 nm on a microplate reader (Biorad).
# [2] = system: retinal acellular capillaries; assay: Quantitation of acellular capillaries in retina of diabetic animals; format: in vivo, rat; conditions: FIG. 5, result in words
# Experimental: as §1
# Evaluation of the retinal vasculature is done following adenosine diphosphatase (ADPase) activity in whole embedded retina. After overnight fixation in 2% PFA in 0.1 M cacodylate buffer at 4° C., an incision was made 2 mm posterior to the ora serrata, and the anterior segment of the eye was removed. […] The ADPase-incubated retina was washed in 0.1 M cacodylate buffer with 5% sucrose. […] Retinal microvascular density was quantified using Image J software.
# After TUNEL-positive cells were counted, coverslips were soaked off, and the retinal vasculature then was stained with hematoxylin-periodic acid-Schiff. Acellular capillaries were counted in four to seven field areas in the mid retina. […] Although counting the ghosts, at least 1000 capillary cells (endothelial cells and pericytes) were counted in five mid-retinal field areas. […]
# [3] = system: Type-1 streptozotocin-induced diabetic Sprague-Dawley rats; assay: Streptozotocin-induced diabetic rat model: body weight, blood glucose, glycated hemoglobin; format: in vivo; conditions: STZ-induced diabetic Sprague-Dawley rats, after 90 days of treatment, n=20/group, mean +/- SEM
# Experimental: as §1
# To analyse the effect of the composition of the invention, animals are fed as followed:
# Diabetic and non-diabetic groups were examined biweekly to follow blood glucose and the body weight was recorded. 50 μL of whole blood was collected in potassium-EDTA tubes (Becton Dickinson) for subsequent analysis of glycated hemoglobin (GHb).
substance,measurement,setting,value
docosahexaneoic acid (DHA) [Group G2],AGE (advanced glycation end product),[1],0.026 +/− 0.004 AU/mg
same,Capillary degeneration (degenerated acellular capillaries),[2],significantly inhibited
same,Body weight,[3],220 ± 10 g
same,GHb (glycated hemoglobin),[3],5.85 +/− 0.03%
same,Glucose,[3],525 ± 10 mg/dL
